In patent US20260166162A1, “CARBON CHAIN SUBSTANCE FOR REGULATING TRANSMEMBRANE TRANSPORT AND FLUIDITY OF CELL MEMBRANES, AND PREPARATION AND USE THEREOF” (priority 2022, published 2026):
Like-named read-outs stand apart in the source and are kept apart here.

Key:
Format in all cases: cell-based
[1] = tested on: SARS-CoV-2 pseudovirus (B.1.526.2)
[2] = tested on: 293T cells; test: Cellular phagocytosis of DiD-loaded lipid vesicles (nano-drugs) by 293T cells (Example II-51, Table II-29); conditions: 293T cells pretreated 4 h, DiD lipid vesicles 2 h, n=3, untreated control 226.46 ± 1.26
[3] = tested on: human pancreatic β-cells; test: Insulin secretion from human islet β cells (ELISA of supernatant); conditions: 6 h
[4] = tested on: Hela cells; test: Cell membrane fluidity (Laurdan fluorescence recovery) in Hela cells
[5] = tested on: Epithelial cells; test: Interaction of GFP-labelled complexes with cell membrane of epithelial cells (Example II-52, Table II-30); conditions: GFP-labelled complex, epithelial cells pretreated 4 hours, n=3
Procedure: The fatty acids were combined with water-soluble small molecules to form a complex, which were labeled with GFP fluorescence to detect cell membrane fluorescence. […] After the cells were stably adhered, the water-soluble fatty acid complexes in the following table were added to the cell culture medium. […] The medium with the drug was pipetted and replaced with normal DMEM medium. […] The green fluorescence intensity was analyzed by imageJ (see Table II-30, n=3).

## CCCCCC=CCC=CCCCCCCCC(=O)OC(C)C(N)C(=O)O (stereo not drawn) [Threonine-LA]
[1]; 2 nM, n=3
  Inhibition rate (%): 55.64 ± 1.68%
[1]; 5 nM, n=3
  Inhibition rate (%): 71.66 ± 2.98%
[1]; 10 nM, n=3
  Inhibition rate (%): 80.84 ± 4.59%
[1]; 50 nM, n=3
  Inhibition rate (%): 79.83 ± 8.55%
[1]; 100 nM, n=3
  Inhibition rate (%): 75.99 ± 2.66%
[1]; 1 μM, n=3
  Inhibition rate (%): -82.33 ± 0.87%
[1]; 10 μM, n=3
  Inhibition rate (%): -124.16 ± 0.47%
[1]; 50 μM, n=3
  Inhibition rate (%): 71.36 ± 0.48%
[1]; 100 μM, n=3
  Inhibition rate (%): 87.98 ± 0.55%
[2]; 2 nM
  Fluorescence intensity: 100.46 ± 4.23
[2]; 5 nM
  Fluorescence intensity: 64.18 ± 0.47
[2]; 10 nM
  Fluorescence intensity: 43.39 ± 0.55
[2]; 50 nM
  Fluorescence intensity: 45.68 ± 0.23
[2]; 100 nM
  Fluorescence intensity: 54.37 ± 0.63
[2]; 1 uM
  Fluorescence intensity: 412.90 ± 0.43
[2]; 10 uM
  Fluorescence intensity: 507.63 ± 0.23
[2]; 50 uM
  Fluorescence intensity: 64.86 ± 0.19
[2]; 100 uM
  Fluorescence intensity: 27.22 ± 0.16

## CCCCCCCCCCCCCCCCCC(=O)OCC(N)C(=O)O (stereo not drawn) [Ser-stearic acid]
[3]; 2 nM
  Insulin: 0.28 ng/mL
[3]; 5 nM
  Insulin: 0.30 ng/mL
[3]; 10 nM
  Insulin: 0.41 ng/mL
[3]; 50 nM
  Insulin: 0.48 ng/mL
[3]; 50 μM
  Insulin: 1.38 ng/mL
[3]; 100 μM
  Insulin: 1.41 ng/mL

## Glucose-pentadecanedioic acid
[3]; 2 nM
  Insulin: 0.22 ng/mL
[3]; 5 nM
  Insulin: 0.23 ng/mL
[3]; 10 nM
  Insulin: 0.36 ng/mL
[3]; 50 nM
  Insulin: 0.43 ng/mL
[3]; 50 μM
  Insulin: 1.48 ng/mL
[3]; 100 μM
  Insulin: 1.52 ng/mL

## Uridine diphosphate glucose-dodecanoic acid [UDPGA-C12]
[1]; 0.002 µM
  Inhibition rate (%): 56.54 ± 3.94%
[1]; 0.005 µM
  Inhibition rate (%): 79.66 ± 3.69%
[1]; 0.01 µM
  Inhibition rate (%): 91.38 ± 3.36%
[1]; 0.05 µM
  Inhibition rate (%): 81.33 ± 1.25%
[1]; 0.1 µM
  Inhibition rate (%): 87.47 ± 8.23%
[1]; 1 µM
  Inhibition rate (%): -92.93 ± 0.58%
[1]; 10 µM
  Inhibition rate (%): 73.16 ± 0.59%
[1]; 50 µM
  Inhibition rate (%): 67.37 ± 0.54%
[1]; 100 µM
  Inhibition rate (%): 53.98 ± 0.78%

## CCCCCCCCCC(=O)NCCCCC(N)C(=O)O (stereo not drawn) [Lys-n-decanoic acid]
[3]; 2 nM
  Insulin: 0.45 ng/mL
[3]; 5 nM
  Insulin: 0.47 ng/mL
[3]; 10 nM
  Insulin: 0.56 ng/mL
[3]; 50 nM
  Insulin: 0.60 ng/mL
[3]; 50 μM
  Insulin: 1.53 ng/mL
[3]; 100 μM
  Insulin: 1.63 ng/mL

## Uridine diphosphate glucose-oleic acid [UDPGA-OA]
[1]; 0.002 µM
  Inhibition rate (%): 44.54 ± 1.23%
[1]; 0.005 µM
  Inhibition rate (%): 50.06 ± 1.05%
[1]; 0.01 µM
  Inhibition rate (%): 54.94 ± 1.84%
[1]; 0.05 µM
  Inhibition rate (%): 67.33 ± 1.00%
[1]; 0.1 µM
  Inhibition rate (%): 84.96 ± 4.55%
[1]; 1 µM
  Inhibition rate (%): -82.33 ± 0.53%
[1]; 10 µM
  Inhibition rate (%): -54.00 ± 0.23%
[1]; 50 µM
  Inhibition rate (%): 73.06 ± 0.26%
[1]; 100 µM
  Inhibition rate (%): 83.61 ± 0.88%

## Adenosine monophosphate-lauroic acid
[3]; 2 nM
  Insulin: 0.37 ng/mL
[3]; 5 nM
  Insulin: 0.38 ng/mL
[3]; 10 nM
  Insulin: 0.43 ng/mL
[3]; 50 nM
  Insulin: 0.49 ng/mL
[3]; 50 μM
  Insulin: 1.49 ng/mL
[3]; 100 μM
  Insulin: 1.53 ng/mL

## CCCCCC(=O)OC(C)C(N)C(=O)O (stereo not drawn) [Thr-n-hexanoic acid]
[3]; 2 nM
  Insulin: 0.38 ng/mL
[3]; 5 nM
  Insulin: 0.37 ng/mL
[3]; 10 nM
  Insulin: 0.47 ng/mL
[3]; 50 nM
  Insulin: 0.54 ng/mL
[3]; 50 μM
  Insulin: 1.41 ng/mL
[3]; 100 μM
  Insulin: 1.46 ng/mL

## cholyltaurine-tetradecanoic acid [cholyltaurine-C14]
[1]; 2 nM, n=3
  Inhibition rate (%): 70.54 ± 3.20%
[1]; 5 nM, n=3
  Inhibition rate (%): 79.66 ± 5.66%
[1]; 10 nM, n=3
  Inhibition rate (%): 81.84 ± 4.57%
[1]; 50 nM, n=3
  Inhibition rate (%): 80.88 ± 1.22%
[1]; 100 nM, n=3
  Inhibition rate (%): 79.06 ± 2.22%
[1]; 1 μM, n=3
  Inhibition rate (%): -94.23 ± 5.55%
[1]; 10 μM, n=3
  Inhibition rate (%): 4.26 ± 0.95%
[1]; 50 μM, n=3
  Inhibition rate (%): 67.55 ± 0.25%
[1]; 100 μM, n=3
  Inhibition rate (%): 58.98 ± 0.44%

## CCCC(=O)OCC(N)C(=O)O (stereo not drawn) [Ser-n-butyric acid]
[3]; 2 nM
  Insulin: 0.41 ng/mL
[3]; 5 nM
  Insulin: 0.39 ng/mL
[3]; 10 nM
  Insulin: 0.49 ng/mL
[3]; 50 nM
  Insulin: 0.53 ng/mL
[3]; 50 μM
  Insulin: 1.42 ng/mL
[3]; 100 μM
  Insulin: 1.51 ng/mL

## Glucose-docosanedioic acid
[3]; 2 nM
  Insulin: 0.25 ng/mL
[3]; 5 nM
  Insulin: 0.27 ng/mL
[3]; 10 nM
  Insulin: 0.41 ng/mL
[3]; 50 nM
  Insulin: 0.50 ng/mL
[3]; 50 μM
  Insulin: 1.41 ng/mL
[3]; 100 μM
  Insulin: 1.46 ng/mL

## CCCCCCCCCCCCCCCCCC(=O)NCCCCC(N)C(=O)O (stereo not drawn) [Lys-stearic acid]
[4]; 2 nM, 20 s
  Fluorescence recovery rate %: 64.38%
[4]; 2 nM, 40 s
  Fluorescence recovery rate %: 65.33%
[4]; 2 nM, 60 s
  Fluorescence recovery rate %: 66.78%
[4]; 2 nM, 80 s
  Fluorescence recovery rate %: 65.32%
[4]; 5 nM, 20 s
  Fluorescence recovery rate %: 63.98%
[4]; 5 nM, 40 s
  Fluorescence recovery rate %: 64.03%
[4]; 5 nM, 60 s
  Fluorescence recovery rate %: 64.52%
[4]; 5 nM, 80 s
  Fluorescence recovery rate %: 64.77%
[4]; 10 nM, 20 s
  Fluorescence recovery rate %: 64.41%
[4]; 10 nM, 40 s
  Fluorescence recovery rate %: 64.81%
[4]; 10 nM, 60 s
  Fluorescence recovery rate %: 65.40%
[4]; 10 nM, 80 s
  Fluorescence recovery rate %: 65.86%
[4]; 50 nM, 20 s
  Fluorescence recovery rate %: 65.08%
[4]; 50 nM, 40 s
  Fluorescence recovery rate %: 65.47%
[4]; 50 nM, 60 s
  Fluorescence recovery rate %: 65.55%
[4]; 50 nM, 80 s
  Fluorescence recovery rate %: 66.26%
[4]; 50 μM, 20 s
  Fluorescence recovery rate %: 65.84%
[4]; 50 μM, 40 s
  Fluorescence recovery rate %: 71.51%
[4]; 50 μM, 60 s
  Fluorescence recovery rate %: 75.97%
[4]; 50 μM, 80 s
  Fluorescence recovery rate %: 80.33%
[4]; 100 μM, 20 s
  Fluorescence recovery rate %: 64.77%
[4]; 100 μM, 40 s
  Fluorescence recovery rate %: 70.54%
[4]; 100 μM, 60 s
  Fluorescence recovery rate %: 73.46%
[4]; 100 μM, 80 s
  Fluorescence recovery rate %: 78.44%
[5]; 0 Hours after medium replaced
  Mean fluorescence intensity: 105.3 ± 5.2
[5]; 2 Hours after medium replaced
  Mean fluorescence intensity: 103.4 ± 2.7
[5]; 4 Hours after medium replaced
  Mean fluorescence intensity: 98.3 ± 2.5
[5]; 8 Hours after medium replaced
  Mean fluorescence intensity: 56.5 ± 5.6
[5]; 12 Hours after medium replaced
  Mean fluorescence intensity: 46.7 ± 8.5
[5]; 24 Hours after medium replaced
  Mean fluorescence intensity: 39.0 ± 5.3

## Uridine diphosphate glucose-pentacosanoic acid [UDPGA-C25]
[1]; 0.002 µM
  Inhibition rate (%): 46.04 ± 0.98%
[1]; 0.005 µM
  Inhibition rate (%): 49.66 ± 0.58%
[1]; 0.01 µM
  Inhibition rate (%): 48.66 ± 1.59%
[1]; 0.05 µM
  Inhibition rate (%): 59.03 ± 1.25%
[1]; 0.1 µM
  Inhibition rate (%): 88.64 ± 4.53%
[1]; 1 µM
  Inhibition rate (%): -12.03 ± 0.83%
[1]; 10 µM
  Inhibition rate (%): -64.26 ± 0.59%
[1]; 50 µM
  Inhibition rate (%): 71.36 ± 0.88%
[1]; 100 µM
  Inhibition rate (%): 92.33 ± 0.73%

## cholylglycine-Ricinoleic acid [cholylglycine-C18-1-OH]
[1]; 2 nM, n=3
  Inhibition rate (%): 72.59 ± 5.58%
[1]; 5 nM, n=3
  Inhibition rate (%): 74.66 ± 1.25%
[1]; 10 nM, n=3
  Inhibition rate (%): 78.34 ± 2.55%
[1]; 50 nM, n=3
  Inhibition rate (%): 89.33 ± 2.25%
[1]; 100 nM, n=3
  Inhibition rate (%): 88.76 ± 4.58%
[1]; 1 μM, n=3
  Inhibition rate (%): -32.33 ± 0.57%
[1]; 10 μM, n=3
  Inhibition rate (%): -54.26 ± 0.88%
[1]; 50 μM, n=3
  Inhibition rate (%): 71.09 ± 0.58%
[1]; 100 μM, n=3
  Inhibition rate (%): 73.68 ± 0.71%

## NC(CCCCNC(=O)CCCCCCCCCCCCCCCCCCC(=O)O)C(=O)O (stereo not drawn) [Lys-eicosanedioic acid]
[3]; 2 nM
  Insulin: 0.34 ng/mL
[3]; 5 nM
  Insulin: 0.35 ng/mL
[3]; 10 nM
  Insulin: 0.42 ng/mL
[3]; 50 nM
  Insulin: 0.48 ng/mL
[3]; 50 μM
  Insulin: 1.44 ng/mL
[3]; 100 μM
  Insulin: 1.48 ng/mL

## CCCCCC=CCC=CCCCCCCCC(=O)OC(C)C(N)C(=O)O (stereo not drawn) [Thr-linoleic acid]
[5]; 0 Hours after medium replaced
  Mean fluorescence intensity: 127.9 ± 6.6
[5]; 2 Hours after medium replaced
  Mean fluorescence intensity: 122.3 ± 4.7
[5]; 4 Hours after medium replaced
  Mean fluorescence intensity: 102.0 ± 1.5
[5]; 8 Hours after medium replaced
  Mean fluorescence intensity: 65.2 ± 5.6
[5]; 12 Hours after medium replaced
  Mean fluorescence intensity: 45.0 ± 2.5
[5]; 24 Hours after medium replaced
  Mean fluorescence intensity: 41.5 ± 7.2

## CCC/C=C/C(=O)OCC(N)C(=O)O (stereo not drawn) [Ser-t-2-hexenoic acid]
[5]; 0 Hours after medium replaced
  Mean fluorescence intensity: 104.3 ± 5.2
[5]; 2 Hours after medium replaced
  Mean fluorescence intensity: 101.3 ± 8.6
[5]; 4 Hours after medium replaced
  Mean fluorescence intensity: 95.4 ± 4.5
[5]; 8 Hours after medium replaced
  Mean fluorescence intensity: 39.9 ± 8.4
[5]; 12 Hours after medium replaced
  Mean fluorescence intensity: 32.5 ± 3.6
[5]; 24 Hours after medium replaced
  Mean fluorescence intensity: 29.8 ± 5.2
